# US11578074B2, “Nitrogenous heterocyclic compound, preparation method, intermediate, composition, and application” (SHANGHAI PHARMACEUTICALS HOLDING CO., LTD., priority 2017, dated 2023)
# Like-named read-outs stand apart in the source and are kept apart here.
# How the values were obtained:
# [1] = target: T1, CYP1A2 (Homo sapiens, UniProt P05177); assay: Direct inhibition (DI) of CYP1A2 in human liver microsomes; type: in vitro ADME; details: probe Phenacetin, human liver microsomes 0.2 mg/mL, 10 μM compound, read-out: Direct inhibition (DI) 1A2 (Phenacetin)
# T1 construct: A system of 100 μL human liver microsomes; from tissue; host or cells: human liver microsomes
# T1 sequence (P05177 1-516): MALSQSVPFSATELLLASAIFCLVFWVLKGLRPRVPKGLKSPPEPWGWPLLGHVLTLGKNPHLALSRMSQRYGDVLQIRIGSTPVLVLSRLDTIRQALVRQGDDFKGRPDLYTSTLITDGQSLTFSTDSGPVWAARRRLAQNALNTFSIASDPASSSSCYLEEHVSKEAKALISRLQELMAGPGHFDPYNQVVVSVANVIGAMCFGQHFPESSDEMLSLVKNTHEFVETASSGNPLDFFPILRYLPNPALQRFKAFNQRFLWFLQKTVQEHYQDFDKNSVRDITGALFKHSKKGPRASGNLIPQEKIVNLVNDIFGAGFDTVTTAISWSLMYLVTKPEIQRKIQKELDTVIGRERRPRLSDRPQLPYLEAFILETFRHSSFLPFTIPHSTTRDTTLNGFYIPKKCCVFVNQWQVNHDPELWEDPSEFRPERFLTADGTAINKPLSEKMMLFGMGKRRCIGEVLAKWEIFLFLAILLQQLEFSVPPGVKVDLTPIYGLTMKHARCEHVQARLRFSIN
# Summary of the method: (§1)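 Pooled human liver microsomes (0.2 mg/mL) with 1 mM NADPH and 10 μM test compound were incubated for 20 min with a mixed probe-substrate cocktail (midazolam 10 μM, testosterone 100 μM, dextromethorphan 10 μM, diclofenac 20 μM, phenacetin 100 μM, mephenytoin 100 μM). Relative enzyme activity came from metabolite formation versus DMSO control.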
# [2] = system: HER2 overexpressing human gastric cancer NCI-N87 nude mice xenograft; assay: HER2 overexpressing human gastric cancer NCI-N87 nude mice xenograft model; type: in vivo; details: 10 mg/kg, continuous oral administration for 21 days
# Description: We have established nude mice xenograft model for HER2 overexpression.
# [3] = target: T2, CYP2C9 (Homo sapiens, UniProt P11712); assay: Direct inhibition (DI) of CYP2C9 in human liver microsomes; type: in vitro ADME; details: probe Diclofenac, human liver microsomes 0.2 mg/mL, 10 μM compound, read-out: Direct inhibition (DI) 2C9 (Diclofenac)
# T2 construct: A system of 100 μL human liver microsomes; from tissue; host or cells: human liver microsomes
# T2 sequence (P11712 whole entry): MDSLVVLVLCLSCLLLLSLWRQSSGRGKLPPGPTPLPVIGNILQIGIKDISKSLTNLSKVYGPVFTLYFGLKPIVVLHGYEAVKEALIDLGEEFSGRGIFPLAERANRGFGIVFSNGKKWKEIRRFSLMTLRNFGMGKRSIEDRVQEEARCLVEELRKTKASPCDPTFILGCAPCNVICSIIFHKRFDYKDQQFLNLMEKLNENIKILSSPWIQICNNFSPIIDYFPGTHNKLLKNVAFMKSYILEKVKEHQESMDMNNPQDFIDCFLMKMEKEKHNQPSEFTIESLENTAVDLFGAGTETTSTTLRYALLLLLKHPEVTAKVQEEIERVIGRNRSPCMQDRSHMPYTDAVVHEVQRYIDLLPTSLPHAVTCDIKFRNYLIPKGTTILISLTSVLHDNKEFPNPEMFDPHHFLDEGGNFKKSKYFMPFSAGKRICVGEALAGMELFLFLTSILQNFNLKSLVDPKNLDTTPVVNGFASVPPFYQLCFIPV
# Summary of the method: as §1
# [4] = target: T3, CYP3A4 (Homo sapiens, UniProt P08684); assay: Direct inhibition (DI) of CYP3A4 in human liver microsomes; type: in vitro ADME; details: human liver microsomes 0.2 mg/mL, 10 μM compound
# T3 construct: A system of 100 μL human liver microsomes; from tissue; host or cells: human liver microsomes
# T3 sequence (P08684 whole entry): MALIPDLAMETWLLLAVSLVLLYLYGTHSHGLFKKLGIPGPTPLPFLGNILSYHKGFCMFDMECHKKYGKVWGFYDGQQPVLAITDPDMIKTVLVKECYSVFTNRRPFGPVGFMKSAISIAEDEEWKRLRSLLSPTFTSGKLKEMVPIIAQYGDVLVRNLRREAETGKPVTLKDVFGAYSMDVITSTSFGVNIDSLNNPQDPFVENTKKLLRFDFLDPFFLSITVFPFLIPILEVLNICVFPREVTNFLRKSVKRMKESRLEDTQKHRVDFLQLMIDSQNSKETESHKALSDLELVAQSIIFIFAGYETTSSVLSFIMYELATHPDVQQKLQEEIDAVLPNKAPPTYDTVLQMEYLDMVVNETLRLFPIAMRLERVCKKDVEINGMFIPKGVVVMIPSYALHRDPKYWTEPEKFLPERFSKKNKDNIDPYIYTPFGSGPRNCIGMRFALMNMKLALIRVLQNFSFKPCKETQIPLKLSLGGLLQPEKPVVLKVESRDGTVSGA
# Summary of the method: as §1
# [5] = target: T4, CYP2C19 (Homo sapiens, UniProt P33261); assay: Direct inhibition (DI) of CYP2C19 in human liver microsomes; type: in vitro ADME; details: probe Mephenytoin, human liver microsomes 0.2 mg/mL, 10 μM compound, read-out: Direct inhibition (DI) 2C19 (Mephenytoin)
# T4 construct: A system of 100 μL human liver microsomes; from tissue; host or cells: human liver microsomes
# T4 sequence (P33261 whole entry): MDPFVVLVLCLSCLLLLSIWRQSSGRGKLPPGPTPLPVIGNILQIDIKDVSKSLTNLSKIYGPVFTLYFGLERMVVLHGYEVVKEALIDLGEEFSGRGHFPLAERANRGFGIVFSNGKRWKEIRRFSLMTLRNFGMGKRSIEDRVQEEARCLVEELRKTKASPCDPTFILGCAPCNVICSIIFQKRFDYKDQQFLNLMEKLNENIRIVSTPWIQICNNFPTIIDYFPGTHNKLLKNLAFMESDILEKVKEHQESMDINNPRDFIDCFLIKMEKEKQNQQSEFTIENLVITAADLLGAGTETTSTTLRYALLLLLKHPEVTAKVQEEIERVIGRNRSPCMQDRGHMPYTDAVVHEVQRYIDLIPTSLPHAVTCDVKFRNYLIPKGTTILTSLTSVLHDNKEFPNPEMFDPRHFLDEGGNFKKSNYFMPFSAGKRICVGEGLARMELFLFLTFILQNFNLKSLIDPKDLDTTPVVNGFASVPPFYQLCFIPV
# Summary of the method: as §1
# [6] = target: T5, CYP2D6 (Homo sapiens, UniProt P10635); assay: Direct inhibition (DI) of CYP2D6 in human liver microsomes; type: in vitro ADME; details: probe Dextromethorphan, human liver microsomes 0.2 mg/mL, 10 μM compound, read-out: Direct inhibition (DI) 2D6 (Dextromethorphan)
# T5 construct: A system of 100 μL human liver microsomes; from tissue; host or cells: human liver microsomes
# T5 sequence (P10635 whole entry): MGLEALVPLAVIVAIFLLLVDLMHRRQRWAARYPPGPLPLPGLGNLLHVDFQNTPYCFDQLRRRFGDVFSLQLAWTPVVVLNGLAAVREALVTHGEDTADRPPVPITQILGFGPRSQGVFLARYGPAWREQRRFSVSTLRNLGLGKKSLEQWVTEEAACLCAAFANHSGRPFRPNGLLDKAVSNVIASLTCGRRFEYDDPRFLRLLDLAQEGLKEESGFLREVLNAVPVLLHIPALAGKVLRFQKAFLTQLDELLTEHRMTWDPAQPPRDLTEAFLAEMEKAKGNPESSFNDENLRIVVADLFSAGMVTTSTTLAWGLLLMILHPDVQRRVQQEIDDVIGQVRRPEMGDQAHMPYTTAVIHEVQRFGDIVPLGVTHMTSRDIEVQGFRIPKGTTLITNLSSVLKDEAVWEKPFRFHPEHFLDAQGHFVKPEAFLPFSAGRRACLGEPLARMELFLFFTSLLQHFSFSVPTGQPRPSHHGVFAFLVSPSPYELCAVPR
# Summary of the method: as §1
# [7] = In vivo pharmacokinetics study in cynomolgus monkeys; details: cynomolgus monkeys, oral 15 mg/kg
# Procedure: 6 male cynomolgus monkeys (purchased from Guangxi Guidong Primate Development Experiment Co., Ltd., certificate No. SCXK (Guangxi) 2013-0057) were divided into 2 groups with 3 in each group, and all of the animals were fasted for about 12 hours before administration. One group was orally administrated with 15 mg/kg of the final product of Embodiment 22 (deionized water was added, followed by sonication for 30 minutes and stirring for 3 minutes, and a clear pale yellow dosing solution with a concentration of 3 mg/mL was prepared); one group was administrated with 15 mg/kg of Pyrotinib (deionized water was added, followed by sonication for 30 minutes and stirring for 4 minutes, and a clear yellow dosing solution with a concentration of 3 mg/mL was prepared). Blood samples were collected before administration and at 15, 30, 60, 90, 120, 150, 180, 240, 360, 480, 720 and 1440 minutes respectively after administration.
# (§2) 1.0 mL of blood was collected from each animal through jugular vein puncture at each time point and heparin sodium was used for anticoagulation. The blood samples were collected and placed in labeled centrifuge tubes, and plasma was centrifuged (centrifugation conditions: 3500 rpm, 10 minutes, 2-8° C.). To 50 μL of plasma sample was added 300 μL of acetonitrile containing internal standard (Propranolol, 25 ng/mL) to precipitate the protain. After vortexing for 10 minutes and centrifuging at 6000 g for 20 minutes, 100 μL of supernatant was taken and injected into a 96-well plate. The drug concentration in plasma was determined by UPLC/MS-MS.
# [8] = In vivo pharmacokinetics study in beagle dogs; details: beagle dogs, oral 15 mg/kg
# Procedure: 6 male beagle dogs (purchased from Beijing Marshall Biotechnology Co., Ltd., certificate No. SCXK (Beijing) 2016-0001) were divided into 2 groups with 3 dogs in each group, and all of the animals were fasted for about 12 hours before administration. One group was orally administrated with 15 mg/kg of the final product of Embodiment 22 (deionized water was added, followed by sonication for 29 minutes and stirring for 4 minutes, and a clear pale yellow dosing solution with a concentration of 3 mg/mL was prepared); the other group was orally administrated with 15 mg/kg of Pyrotinib (deionized water was added, followed by sonication for 28 minutes and stirring for 5 minutes, and a clear yellow dosing solution with a concentration of 3 mg/mL was prepared). Blood samples were collected before administration and at 15, 30, 60, 90, 120, 150, 180, 240, 360, 480, 720 and 1440 minutes respectively after administration.
# as §2
compound,measurement,setting,value
"CCOc1cc2ncc(C#N)c(Nc3ccc(OCc4ccccn4)c(Cl)c3)c2cc1NC(=O)/C=C/[C@H]1CCCN1C [Pyrotinib, reference compound]","inhibition at 20 min, 10 µM",[1],22%
same,tumor volume inhibition rate (GI %),[2],127.0%
same,"inhibition at 20 min, 10 µM",[3],26%
same,"inhibition at 20 min, 10 µM","[4]; probe Midazolam, read-out: Direct inhibition (DI) 3A4 (Midazolam)",15%
same,"inhibition at 20 min, 10 µM","[4]; probe Testosterone, read-out: Direct inhibition (DI) 3A4 (testosterone)",22%
same,"inhibition at 20 min, 10 µM",[5],43%
same,"inhibition at 20 min, 10 µM",[6],55%
same,oral absorption peak concentration,[7],56.42 ng/mL
same,AUC,"[7]; male, cynomolgus monkey, plasma, read-out: AUC",325 ng·h/mL
same,peak oral absorption concentration,[8],146.2 ng/mL
same,AUC,"[8]; male, dog, plasma, read-out: AUC",1620 ng·h/mL
